Like-named read-outs stand apart in the source and are kept apart here. Where a SMILES comes first, the peptide text is derived from it. The star is where a group is joined. X1 = O=C(CCCCc1cn([C@@H]2O[C@H](CO)[C@H](O)[C@H](O)[C@H]2O)nn1)*; NODAGA = O=C(O)CN1CCN(CC(=O)O)CCN(C(CCC(=O)*)C(=O)O)CC1; GABA = NCCCC(=O)O
Experiments:
[1] = protein binding in human serum; assay type: in vitro ADME; details: for fraction unbound: human, serum, read-out: protein binding (%) (converted)
Method: (§1) The ^68Ge/^68Ga generator, devices for analytical HPLC, semipreparative HPLC, mass spectrometry, radio-thin layer chromatography, gamma counter and animal models for biodistribution and imaging studies including the image reconstruction procedures were the same as described before.[22] Stability assays in PBS and human blood serum, protein binding as well as determination of log D values followed established protocols.[25] Binding affinities (IC50) of selected ligands were determined in an isolated receptor-based assay according to a previously published procedure with minor modifications.[22] Dilutions of nonradioactive complexes were made with PBS + 0.1% BSA (10^–5–10^–12 M). Preparation of [^125I]I-Asialoorosomucoid which serves as the radioactive standard ligand has been published recently.[21]

complex stability in PBS = assay type: physicochemical
Method: as §1

[2] = biodistribution in healthy BALB/c mice; details: mouse, in vivo; for tissue uptake at 10 min: 10 min p.i.; for tissue uptake at 0.5 h: 30 min p.i.; for tissue uptake at 1 h: 60 min p.i.
Method: as §1
Animal experiments were performed in accordance with the Austrian animal experiments law (BGBl. I Nr. 114/2012) and the institution’s animal welfare standards as approved by the Austrian Federal Ministry of Education, Science and Research (BMBWF, 2022–0.311.708). Imaging experiments were conducted at Werner Siemens Imaging Center (Tübingen, Germany) according to the German animal welfare act as approved by the local authorities (R5/19 G, R09/21 G).
Figure 2 Biodistribution data (% ID/g) of ^68Ga-labeled NODAGA-GalNAc-NonaLysan, NODAGA-NonaLysan, NODAGA-HexaLysan, and NODAGA-TriLysan in healthy BALB/c mice at 10, 30, and 60 min p.i. (100 pmol, 1 MBq).

ASGR = molecular target: T1, ASGR (Mus musculus, UniProt P24721+P34927); experiment: blocking experiment, coinjection of N-acetylgalactosamine, biodistribution in BALB/c mice; details: in vivo, 30 min p.i., 27.7 μmol N-acetylgalactosamine
T1 construct: from tissue; host or cells: liver and other organs of living healthy female BALB/c mice
T1 sequence (P34927 1-284): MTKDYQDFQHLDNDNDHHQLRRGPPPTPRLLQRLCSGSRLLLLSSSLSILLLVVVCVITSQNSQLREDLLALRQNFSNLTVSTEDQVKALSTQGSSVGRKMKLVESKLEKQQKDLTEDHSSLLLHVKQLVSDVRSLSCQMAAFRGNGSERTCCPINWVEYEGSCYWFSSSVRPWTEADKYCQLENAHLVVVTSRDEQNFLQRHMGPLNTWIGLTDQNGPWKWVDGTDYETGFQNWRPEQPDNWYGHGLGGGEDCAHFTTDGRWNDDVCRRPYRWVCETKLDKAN
T1 sequence (P24721 1-301): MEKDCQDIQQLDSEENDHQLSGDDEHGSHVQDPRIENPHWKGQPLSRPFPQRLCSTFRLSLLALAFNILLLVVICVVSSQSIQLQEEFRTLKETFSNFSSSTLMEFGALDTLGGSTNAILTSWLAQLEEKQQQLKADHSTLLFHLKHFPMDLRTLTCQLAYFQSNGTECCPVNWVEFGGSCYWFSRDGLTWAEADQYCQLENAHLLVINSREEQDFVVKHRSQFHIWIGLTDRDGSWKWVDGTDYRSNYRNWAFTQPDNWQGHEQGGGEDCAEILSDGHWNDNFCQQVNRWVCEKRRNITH
Method: Less liver uptake was found for [^68Ga]Ga-NODAGA-HexaLysan (55.5 ± 7.4% ID/g, 30 min p.i.) and least for [^68Ga]Ga-NODAGA-TriLysan (9.4 ± 2.0% ID/g, 30 min p.i.). […] However, an increasing activity accumulation in the intestine was found for [^68Ga]Ga-NODAGA-NonaLysan, [^68Ga]Ga-NODAGA-GalNAc-Nonalysan, and [^68Ga]Ga-NODAGA-HexaLysan over time. Nevertheless, liver-to-organ ratios were highest for [^68Ga]Ga-NODAGA-NonaLysan (Figure 3). Lower liver-to-organ ratios were found for the GalNAc derivative due to higher off-target binding in the pancreas, stomach, heart, muscle, lung, and femur. […] Coinjection of both nonamers with a large excess of N-acetylgalactosamine led to a statistically significant reduction of liver uptake indicating specific interactions of the tracers with their target (Figure 4). As a consequence of the reduced liver uptake also a reduction of the intestinal uptake was observed.
Figure 4 Data (% ID/g) from the blocking experiments using ^68Ga-labeled NODAGA-GalNAc-NonaLysan and NODAGA-NonaLysan in healthy BALB/c mice at 30 min p.i. Blocking was carried out using 27.7 μmol of N-acetylgalactosamine (**p ≤ 0.01; *p ≤ 0.05).

log D determination = assay type: physicochemical; details: read-out: log D
Method: as §1

[3] = complex stability in human blood serum; assay type: in vitro ADME
Method: as §1

In the case of `NC(=O)CNC(=O)CNC(=O)[C@H](CCCCNC(=O)CCCCc1cn([C@@H]2O[C@H](CO)[C@H](O)[C@H](O)[C@H]2O)nn1)NC(=O)CNC(=O)CNC(=O)[C@H](CCCCNC(=O)CCCCc1cn([C@@H]2O[C@H](CO)[C@H](O)[C@H](O)[C@H]2O)nn1)NC(=O)CNC(=O)CNC(=O)[C@H](CCCCNC(=O)CCCCc1cn([C@@H]2O[C@H](CO)[C@H](O)[C@H](O)[C@H]2O)nn1)NC(=O)CNC(=O)CNC(=O)[C@H](CCCCNC(=O)CCCCc1cn([C@@H]2O[C@H](CO)[C@H](O)[C@H](O)[C@H]2O)nn1)NC(=O)CNC(=O)CNC(=O)[C@H](CCCCNC(=O)CCCCc1cn([C@@H]2O[C@H](CO)[C@H](O)[C@H](O)[C@H]2O)nn1)NC(=O)CNC(=O)CNC(=O)[C@H](CCCCNC(=O)CCCCc1cn([C@@H]2O[C@H](CO)[C@H](O)[C@H](O)[C@H]2O)nn1)NC(=O)CNC(=O)CNC(=O)[C@H](CCCCNC(=O)CCCCc1cn([C@@H]2O[C@H](CO)[C@H](O)[C@H](O)[C@H]2O)nn1)NC(=O)CNC(=O)CNC(=O)[C@H](CCCCNC(=O)CCCCc1cn([C@@H]2O[C@H](CO)[C@H](O)[C@H](O)[C@H]2O)nn1)NC(=O)CNC(=O)CNC(=O)[C@H](CCCCNC(=O)CCCCc1cn([C@@H]2O[C@H](CO)[C@H](O)[C@H](O)[C@H]2O)nn1)NC(=O)CCCNC(=O)CCC(C(=O)O)N1CCN(CC(=O)O)CCN(CC(=O)O)CC1` (stereo partly shown) [[^68Ga]Ga-NODAGA-NonaLysan, metal not drawn] ({NODAGA-GABA}-K(X1)GGK(X1)GGK(X1)GGK(X1)GGK(X1)GGK(X1)GGK(X1)GGK(X1)GGK(X1)GG-NH2), the “protein binding (%)” value ([1]; 120 min) is reported as 21.5 ± 3.4%, the fraction unbound ([1]; 2 min) is reported as 0.847 and the fraction unbound ([1]; 30 min) is reported as 0.717. For the same molecule, the fraction unbound ([1]; 60 min) was 0.737, the fraction unbound ([1]; 120 min) was 0.813 and the “complex stability in PBS (% intact ligand)” value (complex stability in PBS; 2 min) was 99.6%. The “complex stability in PBS (% intact ligand)” value (complex stability in PBS; 30 min) was 99.4%, the “complex stability in PBS (% intact ligand)” value (complex stability in PBS; 60 min) was 99.3% and the “complex stability in PBS (% intact ligand)” value (complex stability in PBS; 120 min) was 99.3%. It also gave a tissue uptake at 10 min ([2]; read-out: Blood uptake) of 0.4 ± 0.03 %ID/g, a tissue uptake at 10 min ([2]; read-out: Femur uptake) of 0.3 ± 0.02 %ID/g and a tissue uptake at 10 min ([2]; read-out: Heart uptake) of 0.4 ± 0.04 %ID/g. It also gave a tissue uptake at 10 min ([2]; read-out: Intestine uptake) of 0.8 ± 0.2 %ID/g, a tissue uptake at 10 min ([2]; read-out: Kidneys uptake) of 1.2 ± 0.1 %ID/g and a tissue uptake at 10 min ([2]; read-out: Liver uptake) of 71.2 ± 0.4 %ID/g. For the same molecule, the tissue uptake at 10 min ([2]; read-out: Lung uptake) was 0.9 ± 0.1 %ID/g, the tissue uptake at 10 min ([2]; read-out: Muscle uptake) was 0.6 ± 0.1 %ID/g and the tissue uptake at 10 min ([2]; read-out: Pancreas uptake) was 0.8 ± 0.1 %ID/g. It also gave a tissue uptake at 10 min ([2]; read-out: Spleen uptake) of 0.6 ± 0.2 %ID/g, a tissue uptake at 10 min ([2]; read-out: Stomach uptake) of 0.7 ± 0.2 %ID/g and a tissue uptake at 0.5 h ([2]; read-out: Blood uptake) of 0.2 ± 0.04 %ID/g. The tissue uptake at 0.5 h ([2]; read-out: Femur uptake) was 0.3 ± 0.1 %ID/g, the tissue uptake at 0.5 h ([2]; read-out: Heart uptake) was 0.4 ± 0.04 %ID/g and the tissue uptake at 0.5 h ([2]; read-out: Intestine uptake) was 5.6 ± 0.2 %ID/g. It also gave a tissue uptake at 0.5 h ([2]; read-out: Kidneys uptake) of 0.8 ± 0.03 %ID/g, a tissue uptake at 0.5 h ([2]; read-out: Liver uptake) of 79.6 ± 8 %ID/g and a tissue uptake at 0.5 h ([2]; read-out: Lung uptake) of 0.7 ± 0.1 %ID/g. It also gave a tissue uptake at 0.5 h ([2]; read-out: Muscle uptake) of 0.7 ± 0.03 %ID/g, a tissue uptake at 0.5 h ([2]; read-out: Pancreas uptake) of 0.9 ± 0.1 %ID/g and a tissue uptake at 0.5 h ([2]; read-out: Spleen uptake) of 0.2 ± 0.03 %ID/g. For the same molecule, the tissue uptake at 0.5 h ([2]; read-out: Stomach uptake) was 1.2 ± 0.4 %ID/g, the tissue uptake at 1 h ([2]; read-out: Blood uptake) was 0.2 ± 0.1 %ID/g and the tissue uptake at 1 h ([2]; read-out: Femur uptake) was 0.2 ± 0.01 %ID/g. The tissue uptake at 1 h ([2]; read-out: Heart uptake) was 0.5 ± 0.1 %ID/g, the tissue uptake at 1 h ([2]; read-out: Intestine uptake) was 7.9 ± 0.5 %ID/g and the tissue uptake at 1 h ([2]; read-out: Kidneys uptake) was 1 ± 0.2 %ID/g. The tissue uptake at 1 h ([2]; read-out: Liver uptake) was 69.6 ± 1 %ID/g, the tissue uptake at 1 h ([2]; read-out: Lung uptake) was 0.9 ± 0.1 %ID/g and the tissue uptake at 1 h ([2]; read-out: Muscle uptake) was 0.6 ± 0.1 %ID/g. The tissue uptake at 1 h ([2]; read-out: Pancreas uptake) was 1.2 ± 0.2 %ID/g, the tissue uptake at 1 h ([2]; read-out: Spleen uptake) was 0.5 ± 0.03 %ID/g and the tissue uptake at 1 h ([2]; read-out: Stomach uptake) was 1.8 ± 1 %ID/g. The tissue uptake at 0.5 h (ASGR; read-out: Blood uptake) was 0.3 ± 0.2 %ID/g, the tissue uptake at 0.5 h (ASGR; read-out: Femur uptake) was 0.2 ± 0.01 %ID/g and the tissue uptake at 0.5 h (ASGR; read-out: Heart uptake) was 0.3 ± 0.03 %ID/g. The tissue uptake at 0.5 h (ASGR; read-out: Intestine uptake) was 2.2 ± 0.2 %ID/g, the tissue uptake at 0.5 h (ASGR; read-out: Kidneys uptake) was 2 ± 0.8 %ID/g and the tissue uptake at 0.5 h (ASGR; read-out: Liver uptake) was 48 ± 1.1 %ID/g. The tissue uptake at 0.5 h (ASGR; read-out: Lung uptake) was 0.6 ± 0.1 %ID/g, the tissue uptake at 0.5 h (ASGR; read-out: Muscle uptake) was 0.4 ± 0.04 %ID/g and the tissue uptake at 0.5 h (ASGR; read-out: Pancreas uptake) was 0.5 ± 0.1 %ID/g. The tissue uptake at 0.5 h (ASGR; read-out: Spleen uptake) was 0.3 ± 0.2 %ID/g, the tissue uptake at 0.5 h (ASGR; read-out: Stomach uptake) was 0.9 ± 0.3 %ID/g and the logD (log D determination) was -4.06. For the same molecule, the “complex stability in serum (% intact ligand)” value ([3]; 2 min) was 99.5 ± 0.1%, the “complex stability in serum (% intact ligand)” value ([3]; 30 min) was 99.5 ± 0.1% and the “complex stability in serum (% intact ligand)” value ([3]; 60 min) was 99.5 ± 0.1%. For the same molecule, the “complex stability in serum (% intact ligand)” value ([3]; 120 min) was 99.6%.
